# Results reported in a melting point compilation (Tetko et al.; mined from patent text by program, amines drawn as free bases though some values may be those of a salt).
row,melting point,Structure (SMILES)
1,153 °C,CC(=O)NC(CC(=O)N[C@@H]1CN2C(=O)N(c3cc(Cl)nc(Cl)c3)C(=O)[C@@]2(Cc2ccc(OC(F)(F)F)cc2)C1)C(N)=O (stereo partly drawn)
2,217 to 220 °C,O=C(Nc1ccc(C(=O)N2Cc3ccccc3Cc3ccccc32)cc1)c1cccnc1
3,126 to 128 °C,O=C(NCCO)c1ccc(C(=O)N2CCN(CCO)CC2)nc1
4,227 to 230 °C,Nc1nc(N)c(C(=O)N=CNNC(=O)n2ccnc2)nc1F
5,145 to 147 °C,Cc1cc(C(=O)c2cc(C(F)(F)F)cc(C(F)(F)F)c2)ccc1N(C)C
6,223 to 228 °C,O=C(O)c1cc2cc(O)ccc2o1
7,222 to 223 °C,COc1c(/C=C/c2ccc(C(=O)O)cc2)c(C)cc2c1C(C)(C)CCC2(C)C
8,69 to 72 °C,O=C1c2ccccc2C(=O)N1CCOCCl
9,171 to 175 °C,Nc1nc(Cl)cc(C#Cc2ccc3c(C(=O)Nc4cccc(C(F)(F)F)c4)cccc3c2)n1
10,80 to 81 °C,CC(C)CN(CC(C)C)c1ccc(C(=O)c2ccccc2)cc1[N+](=O)[O-]
11,114 to 116 °C,COc1ccc(C(=O)C=Cc2ccc(C(C)(C)C)cc2)cc1
12,169 to 171 °C,O=c1cc(C=Cc2ccc(Cl)cc2)oc(-c2ccccc2)c1
13,54.9 °C,COc1ccc(-n2cnc(SC)n2)cc1
14,219 to 221 °C,Cc1cc(C(=O)N2CC(O)C2)ncc1C(c1cc(F)ccc1F)S(=O)(=O)c1ccc(F)cc1 (stereo not drawn)
15,147 to 148 °C,CC(C)C(=O)N1CCNC1=Nc1ccc(Cl)cc1Cl
16,212 to 214 °C,COc1ccc(-c2c[nH]cc2C#N)cc1OC
17,172 to 173 °C,FC(F)(F)c1ccc(-c2cc(Oc3cccc4ccc(Cl)nc34)ncn2)cc1
18,169 to 172 °C,COc1cccc(NC(=O)c2cc(C)sc2Br)c1O

row,melting point,Structure (SMILES)
1,99 to 100 °C,CC1=C(C)C(N)(Cc2ccccc2)C(C)C2=C1OCC2c1ccc(C)cc1 (stereo not drawn)
2,103 to 104 °C,Cc1n[nH]c2c1C(=O)CC(C)(C)C2
3,172 to 173 °C,CCc1c(Cc2[nH]c(C(=O)OCc3ccccc3)c(C)c2CCCO)[nH]c(Cc2[nH]c(C(=O)OCc3ccccc3)c(C)c2CCCO)c1CC
4,124 to 129 °C,CC1CC2C3CCC4=CC(=O)C=CC4(C)C3=CCC2(C)C1C(=O)COS(=O)(=O)c1ccc(Br)cc1 (stereo not drawn)
5,> 300 °C,Nc1ccccc1-c1nnc(-c2ccc(C(=O)O)cc2)o1
6,141 to 147 °C,CC(=O)N(CCCC(=NNC(N)=S)c1ccccc1)C(C)C
7,98 to 102 °C,CCCN(CCC)CC(=O)OC1CC2(C)C(C(=O)CO)CCC2C2CCC3CC(O)CCC3(C)C12 (stereo not drawn)
8,215 to 216 °C,Cn1c(=O)nc(-c2ccccc2)c2c3c(sc21)CCCC3
9,69 to 71 °C,COc1ccc2cc([C@H](C)C(=O)OC/C=C\CO)ccc2c1
10,160 to 162 °C,Cn1c2ccccc2c(=O)c2c(-c3ccccc3NC(=O)C(C)(C)C)cccc21
11,106 to 108 °C,CCCc1c(OCCCSc2nc3ccc(C(=O)O)cc3[nH]2)ccc(C(C)=O)c1O
12,230 °C,CC[C@]12CC[C@@H]3c4ccc(O)cc4CC[C@H]3[C@@H]1C=CC2=O
13,124 to 126 °C,CSc1ccc(Oc2ccc([N+](=O)[O-])cc2C#N)cc1
14,200 °C,Cc1csc(NC(=O)c2nc(C)cc(C#N)c2C)n1
15,109 to 111 °C,CCC(C)C(=O)c1cn(C)cc(-c2cccc(C(F)(F)F)c2)c1=O (stereo not drawn)
16,190 to 191 °C,Cc1cc(C(F)(F)C(F)(F)C(F)(F)C(F)(F)F)ccc1NC(=O)c1cccc(Br)c1C(=O)NC(C)C
17,183 to 185 °C,c1ccc2c(c1)CC(N1CCN(c3ccc4c(c3)OCCO4)CC1)C2
18,150 to 152 °C,CCc1cccc(CC)c1NC(=O)CCSc1cc(C(C)(C)C)c(O)c(C(C)(C)C)c1

row,Structure (SMILES),melting point
1,O=C(NC1CN2CCC1CC2)c1cccc2nc(-c3ccccc3)oc12 (stereo not drawn),179 to 180 °C
2,N#CC1CN1C(=O)Oc1ccc([N+](=O)[O-])cc1 (stereo not drawn),100 to 104 °C
